EC50 data for eleven compounds are collected here from ChEMBL document CHEMBL1144313, “Synthesis of ring-substituted 4-aminoquinolines and evaluation of their antimalarial activities” (Bioorg Med Chem Lett, 2005).

SMILES strings stand for the structures.

The test system of one experiment is Plasmodium falciparum. Briefly: Effective concentration for Plasmodium falciparum W2.
Conditions: not given
Format: functional, organism-based.
`CCN(CC)CCCC(C)Nc1ccnc2cc(Cl)c(C)cc12` (stereo unspecified) had an EC50 of 270 nM.
In turn, `CCN(CC)CCCNc1ccnc2ccc(OC(F)(F)F)cc12` returned a 50% effective concentration (EC50) of 102 nM.
In the case of `CCN(CC)CCCNc1ccnc2ccc(C(F)(F)F)cc12`, the EC50 came to 125 nM.
`CCN(CC)CCCC(C)Nc1ccnc2ccc(C(F)(F)F)cc12` (stereo unspecified) showed an EC50 of 290 nM.
In turn, `CCN(CC)CCCNc1ccnc2cc(Oc3ccccc3)ccc12` returned an EC50 of 71 nM.
Same read-out and setting: with `CCN(CC)CCCNc1ccnc2cc(Cl)c(C)cc12` the figure was 50 nM; with `CCN(CC)CCCNc1ccnc2cc(Cl)ccc12`, 23 nM.
Consider `CCN(CC)CCCNc1ccnc2cc(C(F)(F)F)ccc12`, for which the concentration giving a half-maximal response (EC50) is 62 nM.

A further experiment relates to Plasmodium falciparum. Briefly: Effective concentration for Plasmodium falciparum 3D7. Format: functional, organism-based.
Conditions: not given
`CCN(CC)CCCC(C)Nc1c2ccc(Cl)cc2nc2ccc(OC)cc12` (stereo in doubt; form 2) [QUINACRINE] yielded an EC50 of 8 nM.

Staying with this experiment, now noted: Plasmodium falciparum.
In the case of `CCN(CC)CCCC(C)Nc1ccnc2cc(Cl)c(C)cc12` (stereo unspecified), the EC50 amounted to 32 nM.
As to `CCN(CC)CCCNc1ccnc2ccc(OC(F)(F)F)cc12`, the EC50 amounted to 82 nM.
The same measure, in the same setting: with `CCN(CC)CCCNc1ccnc2ccc(C(F)(F)F)cc12` the figure was 90 nM.
The compound `CCN(CC)CCCC(C)Nc1ccnc2ccc(C(F)(F)F)cc12` (stereo unspecified) came in with an EC50 of 51 nM.
Still for that read-out and setting: with `CCN(CC)CCCNc1ccnc2cc(Oc3ccccc3)ccc12` the figure was 34 nM; with `CCN(CC)CCCC(C)Nc1c2ccc(Cl)cc2nc2ccc(OC)cc12` (stereo in doubt; form 1) [QUINACRINE], 5 nM.
In turn, `CCN(CC)CCCNc1ccnc2cc(Cl)c(C)cc12` gave a concentration giving a half-maximal response (EC50) of 9 nM.
Same read-out and setting: the same measure for `CCN(CC)CCCNc1ccnc2cc(Cl)ccc12`: 2 nM.
On to `CCN(CC)CCCNc1ccnc2cc(C(F)(F)F)ccc12`, for which the EC50 was 33 nM.
Same read-out and setting: with `CCN(CC)CCCC(C)Nc1ccnc2ccc(OC(F)(F)F)cc12` (stereo unspecified) the figure was 62 nM.

The next experiment deals with Plasmodium falciparum. Briefly: Effective concentration against Plasmodium falciparum W2. Format: functional, organism-based.
Conditions: not given
`CCN(CC)CCCC(C)Nc1c2ccc(Cl)cc2nc2ccc(OC)cc12` (stereo in doubt; form 2) [QUINACRINE] returned an EC50 of 32 nM.
Consider `CCN(CC)CCCC(C)Nc1c2ccc(Cl)cc2nc2ccc(OC)cc12` (stereo in doubt; form 1) [QUINACRINE], for which the EC50 was 8 nM.

For orientation: EC50 means the concentration at which the effect is half-maximal. Low readings indicate an effect from little substance, high ones a need for much substance.
